Test results from PMC5797143, “Epigenetic modulation of inflammation and synaptic plasticity promotes resilience against stress in mice” (Nature Communications, 2018).

How the values were obtained:
[1] = target: T1, human Ether-à-go-go-related gene (hERG) (Homo sapiens, UniProt Q12809); experiment: In vitro cardiotoxicity, hERG inhibition (IonWorks HT, CHO cells); type: cell-based; settings: CHO cells stably transfected with hERG
T1 construct: expressed in transfected cells; host or cells: CHO cells, stably transfected
T1 sequence (Q12809 whole entry): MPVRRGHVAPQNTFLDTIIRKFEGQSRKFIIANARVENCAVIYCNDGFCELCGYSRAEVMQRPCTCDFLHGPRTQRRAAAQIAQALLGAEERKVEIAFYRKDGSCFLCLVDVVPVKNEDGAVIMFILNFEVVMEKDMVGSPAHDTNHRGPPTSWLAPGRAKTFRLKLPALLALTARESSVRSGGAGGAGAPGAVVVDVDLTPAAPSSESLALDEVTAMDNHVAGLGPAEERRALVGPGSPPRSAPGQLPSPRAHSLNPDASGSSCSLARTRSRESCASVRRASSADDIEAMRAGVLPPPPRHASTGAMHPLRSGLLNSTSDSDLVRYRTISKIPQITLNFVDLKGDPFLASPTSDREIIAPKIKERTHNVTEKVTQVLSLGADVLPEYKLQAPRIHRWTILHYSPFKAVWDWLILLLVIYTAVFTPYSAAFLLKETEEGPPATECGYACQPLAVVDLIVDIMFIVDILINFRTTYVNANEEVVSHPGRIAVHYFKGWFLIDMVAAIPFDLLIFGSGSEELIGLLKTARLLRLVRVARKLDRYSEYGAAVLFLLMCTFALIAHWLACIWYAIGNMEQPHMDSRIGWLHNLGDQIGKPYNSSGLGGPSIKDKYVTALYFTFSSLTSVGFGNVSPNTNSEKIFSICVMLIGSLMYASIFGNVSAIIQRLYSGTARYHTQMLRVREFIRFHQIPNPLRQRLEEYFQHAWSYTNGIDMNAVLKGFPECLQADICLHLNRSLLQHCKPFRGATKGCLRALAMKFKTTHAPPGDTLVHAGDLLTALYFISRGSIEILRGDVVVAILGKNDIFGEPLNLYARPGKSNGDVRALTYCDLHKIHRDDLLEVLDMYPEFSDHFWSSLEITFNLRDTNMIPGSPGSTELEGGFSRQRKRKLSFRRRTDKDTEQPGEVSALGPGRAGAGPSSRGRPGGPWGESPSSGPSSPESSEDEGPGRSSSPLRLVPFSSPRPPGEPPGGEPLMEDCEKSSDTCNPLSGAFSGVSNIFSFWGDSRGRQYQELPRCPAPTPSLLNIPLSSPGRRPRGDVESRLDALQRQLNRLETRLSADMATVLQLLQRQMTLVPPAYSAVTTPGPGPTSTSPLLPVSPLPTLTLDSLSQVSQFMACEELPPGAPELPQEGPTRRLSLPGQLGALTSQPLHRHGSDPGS
Procedure: Cardiotoxicity was assessed using CHO cells stably transfected with the hERG using the IonWorks HT instrument (Molecular Devices Corporation), which automatically performs electrophysiology measurements in 48 single cells simultaneously in a specialized 384-well plate (PatchPlate)[42]. A single-cell suspension was added to the wells of a PatchPlate to form an electrical seal at the bottom and pre-compound currents were recorded. Various concentrations of Mal-gluc or DHCA were added to the cells in four replicates for 5 min and post-compound currents were then recorded. Post-compound currents are then expressed as a percentage of pre-compound currents and plotted against concentration for each compound and IC50 was calculated.

[2] = tested on: C57BL/6 mice subjected to RSDS; experiment: RSDS, prophylactic treatment; type: in vivo, mouse; settings: 5 mg/kg-BW/day DHCA or 500 ng/kg-BW/day Mal-gluc alone prior to RSDS
Procedure: To test the efficacy of BDPP in promoting resilience in stress-mediated depression, we treated C57BL/6 male mice with BDPP or vehicle for 2 weeks prior to and throughout RSDS and then performed social avoidance/interaction (SI) testing (Fig. 1a).
Based on the dose–response studies, we chose 5 mg/kg-BW/day DHCA and 500 ng/kg-BW/day Mal-gluc for the preclinical studies. We tested the prophylactic effect by treating mice with a mixture of DHCA/Mal-gluc for 2 weeks prior to and throughout RSDS (Fig. 3c). […] Following SI testing, mice were subjected to a sucrose preference test to evaluate the treatment effect on stress-induced anhedonia.
Male C57BL/6 mice (8-week-old) were randomly grouped into two groups: one group received regular drinking water; the other group was treated with BDPP composed of GSPE, RESV and CGJ, delivered through their drinking water, starting 2 weeks prior to RSDS and throughout RSDS and SI testing. The calculated daily intake of GSPE was 200 mg/kg body weight (BW), RESV was 300 mg/kg BW and CGJ was 1 ml/day.
To facilitate the follow-up sucrose preference test, the delivery of the drinking solution was through two 50-ml tubes with sipper top for each cage, starting from the day of initiation of treatment and the two tubes were regularly switched during the treatment. In parallel control studies, mice received similar treatment but were not subjected to RSDS. For therapeutic studies, susceptible mice (SI <0.8) were identified and randomly grouped into two groups either treated with vehicle or DHCA/Mal-gluc for 2 weeks. Mice were subjected to SI, sucrose preference, and splash testing. For testing the therapeutic efficacy of Imipramine, susceptible mice were treated with Imipramine (20 mg/kg-BW/day, i.p.) for 34 days. On day 35, mice were tested for SI 15–20 min after the last injection. […]
All social interaction (SI) tests were performed under red-light conditions. […] Their movements were automatically monitored and recorded (Ethovision 3.0; Noldus Information Technology) for 2.5 min in the absence (target absent phase) of a novel CD-1 mouse and followed by 2.5 min exploratory behavior in the presence of a caged CD-1 mouse (target present phase). SI behavior was then calculated as a ratio of the time spent in the interaction zone with the target present divided by the time spent in the interaction zone with the target absent. […]
Mice were given access to a two-bottle choice of water or 1% sucrose solution and the consumption of each solution was recorded once every 24 h for 48 or 72 h. […] Sucrose preference was calculated as a percentage of sucrose consumption over total liquid consumption. […]

[3] = Plasma stability, human plasma; type: in vitro ADME; settings: 37 °C
Procedure: (§1) Compound stability in mouse and human plasma and in mouse brain homogenate were conducted, [45]. Specifically, Mal-gluc or DHCA was incubated in duplicate with plasma at 37 °C and samples were taken at various time points and mixed with three volumes of ice-cold Stop Solution (methanol containing propranolol, diclofenac, or other internal standard). Samples were centrifuged to remove precipitated protein, and the supernatants were analyzed by LC/MS/MS to quantitate for remaining test compound. Data are converted to percentage remaining by dividing by the time zero concentration value. Data are fit to a first-order decay model to determine half-life. Plasma protein binding were conducted using both mouse and human plasma.

[4] = tested on: MSN-enriched primary neurons and PBMCs; experiment: MTT assay; type: cell-based, mouse
Procedure: MTT and LDH release assays were conducted in MSN-enriched primary neurons and in PBMCs[64]. Cellular cytotoxicity was conducted in HepG2 cells using high content screening (HCS) protocols. Briefly, HepG2 cells were plated on 384-well tissue culture treated black walled clear bottomed polystyrene plates and treated with varying concentrations of Mal-gluc or DHCA. The cells were loaded with the relevant dye/antibody for each cell-health marker following incubation, including cell count, markers for nuclear size, DNA structure, cell membrane permeability, mitochondrial mass, mitochondrial membrane potential and cytochrome C release. The plates were then scanned using an automated fluorescent cellular imager ArrayScanr (Thermo Scientific Cellomics).

[5] = Brain homogenate stability; type: in vitro ADME
Procedure: as §1

Row | SMILES | IC50 [1] | anhedonia (sucrose preference), single compound treatment [2] | resilience (SI), single compound treatment [2] | Plasma stability, Half-life (human plasma) [3] | MTT assay, % of vehicle control [4] | Brain homogenate stability, Half-life (mouse homogenate) [5] | half-life ([3]; human, plasma) | half-life ([5]; mouse)
1 | COc1cc(-c2[o+]c3cc(O)cc(O)c3cc2O[C@@H]2O[C@H](CO)[C@@H](O)[C@H](O)[C@H]2O)cc(OC)c1O [Mal-gluc] | > 25 µM | neither treatment significantly promoted resilience (Supplementary Fig. 7a) or alleviate anhedonia | neither treatment significantly promoted resilience | 250 min | 100% | 29.4 min |  | 
2 | O=C(O)CCc1ccc(O)c(O)c1 [DHCA, 3(3,4-dihydroxy-phenyl) propionic acid] | > 25 µM | neither treatment significantly promoted resilience (Supplementary Fig. 7a) or alleviate anhedonia | neither treatment significantly promoted resilience |  | 100% |  | 66.7 min | 16.1 min
